Results reported in PubChem BioAssay (NCI).
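Where inhibition never reached the appropriate level, the endpoint shown equals the highest concentration tested. Otherwise, values were interpolated linearly from a five-concentration, 48-hour dose response in 96-well plates. TGI: concentration producing complete growth inhibition.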

Tests used:
Test in all cases: NCI tumour cell line growth inhibition, 48 h
HCC-2998 colon = tested on: HCC-2998 colon
OVCAR-3 ovarian = tested on: OVCAR-3 ovarian
MDA-MB-435 = tested on: MDA-MB-435
CAKI-1 renal = tested on: CAKI-1 renal
A549 NSCLC = tested on: A549 NSCLC
K-562 leukemia = tested on: K-562 leukemia
MALME-3M melanoma = tested on: MALME-3M melanoma
HOP-92 NSCLC = tested on: HOP-92 NSCLC
HT29 colon = tested on: HT29 colon
HOP-62 NSCLC = tested on: HOP-62 NSCLC
SNB-19 CNS = tested on: SNB-19 CNS

CCCCCCNc1n[nH]c(=O)c2c1nnn2Cc1ccccc1
TGI (HCC-2998 colon): > 100 µM | TGI (OVCAR-3 ovarian): > 100 µM | TGI (MDA-MB-435): > 100 µM | TGI (CAKI-1 renal): > 100 µM | TGI (A549 NSCLC): > 100 µM | TGI (K-562 leukemia): > 100 µM | TGI (MALME-3M melanoma): > 100 µM | TGI (HOP-92 NSCLC): > 100 µM | TGI (HT29 colon): > 100 µM | TGI (HOP-62 NSCLC): > 100 µM | TGI (SNB-19 CNS): > 100 µM

CC(=O)N(C(C)=O)c1ncc(-n2nc(-c3ccccc3)cc2-c2ccccc2)c(-c2ccccc2)n1
TGI (HCC-2998 colon): > 10 µM | TGI (OVCAR-3 ovarian): > 10 µM | TGI (MDA-MB-435): > 10 µM | TGI (CAKI-1 renal): > 10 µM | TGI (A549 NSCLC): > 10 µM | TGI (K-562 leukemia): > 10 µM | TGI (MALME-3M melanoma): > 10 µM | TGI (HOP-92 NSCLC): > 10 µM | TGI (HT29 colon): > 10 µM | TGI (HOP-62 NSCLC): > 10 µM | TGI (SNB-19 CNS): > 10 µM

O=c1oc2ccc3ccccc3c2cc1-c1nc2ccccc2s1
TGI (HCC-2998 colon): > 100 µM | TGI (OVCAR-3 ovarian): > 100 µM | TGI (MDA-MB-435): > 100 µM | TGI (CAKI-1 renal): > 100 µM | TGI (A549 NSCLC): > 100 µM | TGI (K-562 leukemia): > 77.6 µM | TGI (MALME-3M melanoma): > 100 µM | TGI (HOP-92 NSCLC): > 100 µM | TGI (HT29 colon): > 100 µM | TGI (HOP-62 NSCLC): > 100 µM | TGI (SNB-19 CNS): > 26.9 µM

COC(=O)C1=C(OC(=O)/C(=C/c2ccc(Cl)cc2)c2ccc(Cl)cc2)C(C(=O)OC)[C@@]2(O)[C@@H](C(=O)OC)[C@H](C)C[C@@H]1[C@@H]2C(=O)OC (some centres undefined)
TGI (HCC-2998 colon): > 100 µM | TGI (OVCAR-3 ovarian): > 100 µM | TGI (MDA-MB-435): > 100 µM | TGI (CAKI-1 renal): > 100 µM | TGI (A549 NSCLC): > 87.7 µM | TGI (K-562 leukemia): > 100 µM | TGI (MALME-3M melanoma): > 100 µM | TGI (HOP-92 NSCLC): > 86.9 µM | TGI (HT29 colon): > 100 µM | TGI (HOP-62 NSCLC): > 100 µM | TGI (SNB-19 CNS): > 100 µM

O=C1C=CC(=O)c2c1ccc1c3ccccc3n(CCCCCn3c4ccccc4c4ccc5c(c43)C(=O)C=CC5=O)c21
TGI (HCC-2998 colon): > 80.8 µM | TGI (OVCAR-3 ovarian): 34.4 µM | TGI (MDA-MB-435): 46.3 µM | TGI (CAKI-1 renal): 13.7 µM | TGI (A549 NSCLC): > 100 µM | TGI (K-562 leukemia): 4.89 µM | TGI (MALME-3M melanoma): 31.9 µM | TGI (HOP-92 NSCLC): 35.6 µM | TGI (HT29 colon): 85.5 µM | TGI (HOP-62 NSCLC): > 100 µM | TGI (SNB-19 CNS): > 100 µM

C=C(Cl)C(=CCl)CCC(Br)C(C)(C)Cl (mixture of isomers)
TGI (HCC-2998 colon): > 10 µM | TGI (OVCAR-3 ovarian): > 10 µM | TGI (MDA-MB-435): > 10 µM | TGI (CAKI-1 renal): > 10 µM | TGI (A549 NSCLC): > 10 µM | TGI (K-562 leukemia): > 10 µM | TGI (MALME-3M melanoma): > 10 µM | TGI (HOP-92 NSCLC): > 10 µM | TGI (HT29 colon): > 10 µM | TGI (HOP-62 NSCLC): > 10 µM | TGI (SNB-19 CNS): > 10 µM

CN(CCSCCN(C)C(=O)OC(C)(C)C)C(=O)OC(C)(C)C
TGI (HCC-2998 colon): > 100 µM | TGI (OVCAR-3 ovarian): > 100 µM | TGI (MDA-MB-435): > 100 µM | TGI (CAKI-1 renal): > 100 µM | TGI (A549 NSCLC): > 100 µM | TGI (K-562 leukemia): > 100 µM | TGI (MALME-3M melanoma): > 100 µM | TGI (HOP-92 NSCLC): > 100 µM | TGI (HT29 colon): > 100 µM | TGI (HOP-62 NSCLC): > 100 µM | TGI (SNB-19 CNS): > 100 µM

CC(C)(C)OC(=O)NC1CCCCC1NC(=O)C(=O)NC1CCCCC1NC(=O)OC(C)(C)C (centres undefined)
TGI (HCC-2998 colon): > 100 µM | TGI (OVCAR-3 ovarian): > 100 µM | TGI (MDA-MB-435): > 100 µM | TGI (CAKI-1 renal): > 100 µM | TGI (A549 NSCLC): > 100 µM | TGI (K-562 leukemia): > 100 µM | TGI (MALME-3M melanoma): > 100 µM | TGI (HOP-92 NSCLC): 45 µM | TGI (HT29 colon): > 100 µM | TGI (HOP-62 NSCLC): 80.6 µM | TGI (SNB-19 CNS): > 100 µM

CN(C)c1ccc(/C=c2/c3ccccc3n3c2c2c([n+]3C)CCCC2)cc1
TGI (HCC-2998 colon): 0.375 µM | TGI (OVCAR-3 ovarian): 1.17 µM | TGI (MDA-MB-435): 0.717 µM | TGI (CAKI-1 renal): 4.8 µM | TGI (A549 NSCLC): 1.96 µM | TGI (K-562 leukemia): 2.85 µM | TGI (MALME-3M melanoma): 0.866 µM | TGI (HOP-92 NSCLC): 0.141 µM | TGI (HT29 colon): 1.61 µM | TGI (HOP-62 NSCLC): 1.58 µM | TGI (SNB-19 CNS): 6.68 µM
